Assay results as given in patent US20050043378A1, “LTA4H modulators” (priority 2003, published 2005).

Experiments:
[1] = system: neutrophil influx (myeloperoxidase, MPO); experiment: Murine arachidonic acid-induced inflammation model: neutrophil influx (myeloperoxidase activity in ear biopsies); format: in vivo, female Balb/c mice; details: Mus musculus, 30 mg/kg oral gavage 60 min before topical arachidonic acid to ear, ear biopsies after 3 h, vs animals without inhibitor, read-out: % Inh. MPO
[2] = system: LTB4 production by calcium ionophore-stimulated murine blood; experiment: LTB4 production by calcium ionophore-stimulated murine blood for LTA4H inhibitor activity; format: cell-based, CD-1 mice; details: diluted CD-1 mouse whole blood, A23187 stimulation, LTB4 by immunoassay; read-out: IC50
[3] = target: T1, recombinant human LTA4 hydrolase (rhLTA4H) (Homo sapiens, UniProt P09960); experiment: Recombinant human LTA4 hydrolase assay for LTA4 hydrolase inhibitor activity; format: biochemical; details: LTA4 substrate, LTB4 by immunoassay, average of one to three determinations;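 note: enzyme expressed in Sf-9 insect cells, compound preincubated 10 min with enzyme, 10 min reaction at room temperature, uninhibited reaction as positive control, enzyme-free blank as negative control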
T1 construct: made in house; host or cells: Spodoptera frugiperda (Sf-9) cells, baculovirus (pFastBac1)
T1 sequence (P09960 1-611): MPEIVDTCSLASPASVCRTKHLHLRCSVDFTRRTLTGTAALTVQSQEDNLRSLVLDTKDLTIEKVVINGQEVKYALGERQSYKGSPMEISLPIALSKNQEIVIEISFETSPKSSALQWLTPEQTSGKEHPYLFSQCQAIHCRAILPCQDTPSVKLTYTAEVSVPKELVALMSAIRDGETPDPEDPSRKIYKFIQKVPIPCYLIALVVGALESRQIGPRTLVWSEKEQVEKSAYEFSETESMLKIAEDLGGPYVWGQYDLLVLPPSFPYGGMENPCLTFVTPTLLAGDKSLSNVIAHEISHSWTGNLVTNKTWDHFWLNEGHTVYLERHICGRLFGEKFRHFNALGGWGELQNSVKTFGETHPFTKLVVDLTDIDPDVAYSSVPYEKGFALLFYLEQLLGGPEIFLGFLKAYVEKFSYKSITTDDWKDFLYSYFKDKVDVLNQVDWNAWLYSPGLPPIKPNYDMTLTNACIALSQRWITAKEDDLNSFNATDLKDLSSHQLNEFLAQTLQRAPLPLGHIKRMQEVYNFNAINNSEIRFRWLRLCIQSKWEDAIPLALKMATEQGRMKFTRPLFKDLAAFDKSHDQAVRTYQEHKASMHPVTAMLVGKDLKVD

[4] = system: ex vivo stimulated LTB4 production in blood; experiment: Murine arachidonic acid-induced inflammation model: ex vivo stimulated LTB4 production; set-up: species or system female Balb/c mice; details: Mus musculus; 30 mg/kg oral gavage; blood taken 3 h after arachidonic acid, ex vivo A23187 stimulation; vs animals without inhibitor; read-out: % Inh. LTB4

Row | Structure (SMILES) | IC50 [2] [nM] | IC50 [3] [nM] | inhibition in vivo at 30 mg/kg [1] [%] | inhibition at 30 mg/kg [4] [%]
1 | CN(C)CCOc1ccc(Oc2nc3ccccc3o2)cc1 [Example 46, {2-[4-(Benzooxazol-2-yloxy)-phenoxy]-ethyl}-dimethyl-amine] | 29 | 17 |  | 
2 | OC1CCN(CCc2ccc(Oc3nc4ccccc4[nH]3)cc2)CC1 [Example 127, 1-{2-[4-(1H-Benzoimidazol-2-yloxy)-phenyl]-ethyl}-piperidin-4-ol] | 376 |  |  | 
3 | OC1CCN(CCOc2ccc(Oc3nc4ccccc4[nH]3)cc2)CC1 [Example 134, 1-{2-[4-(1H-Benzoimidazol-2-yloxy)-phenoxy]-ethyl}-piperidin-4-ol] | 436 | 110 |  | 
4 | O=C(O)C1CCCCN1CCc1ccc(Oc2nc3ccccc3s2)cc1 (centres unmarked) [Example 156, 1-{2-[4-(Benzothiazol-2-yloxy)-phenyl]-ethyl}-piperidine-2-carboxylic acid] | 2000 | 7 |  | 
5 | OCCCN(CCc1ccc(Oc2nc3ccccc3s2)cc1)C1CC1 [Example 198, 3-({2-[4-(Benzothiazol-2-yloxy)-phenyl]-ethyl}-cyclopropyl-amino)-propan-1-ol] | 39 |  |  | 
6 | O=C1C[C@H](O)CN1C1CCN(CCOc2ccc(Oc3nc4ccccc4s3)cc2)CC1 [Example 207, (S)-1-(1-{2-[4-(Benzothiazol-2-yloxy)-phenoxy]-ethyl}-piperidin-4-yl)-4-hydroxy-pyrrolidin-2-one] | 81 | 16 |  | 
7 | O=C(O)C1CCN(Cc2ccc(Oc3nc4ccccc4s3)cc2)CC1 [Example 250, 1-[4-(Benzothiazol-2-yloxy)-benzyl]-piperidine-4-carboxylic acid] |  |  | 94 | 80
8 | CCN(CCO)Cc1ccc(Oc2nc3ccccc3s2)cc1 [Example 287, 2-{[4-(Benzothiazol-2-yloxy)-benzyl]-ethyl-amino}-ethanol] |  | 28 |  | 
9 | CCN(CC)Cc1ccc(Oc2nc3ccccc3s2)cc1 [Example 294, [4-(Benzothiazol-2-yloxy)-benzyl]-diethyl-amine] |  | 6 |  | 
10 | OCC1CCCCN1Cc1ccc(Oc2nc3ccccc3s2)cc1 (centres unmarked) [Example 298, {1-[4-(Benzothiazol-2-yloxy)-benzyl]-piperidin-2-yl}-methanol] | 69 | 15 |  | 
11 | OC1(c2ccccc2)CCN(Cc2ccc(Oc3nc4ccccc4s3)cc2)CC1 [Example 358, 1-[4-(Benzothiazol-2-yloxy)-benzyl]-4-phenyl-piperidin-4-ol] |  | 11 |  | 
12 | O=C(O)CN1CCN(Cc2ccc(Oc3nc4ccccc4s3)cc2)CC1 [Example 366, {4-[4-(Benzothiazol-2-yloxy)-benzyl]-piperazin-1-yl}-acetic acid] |  | 39 |  | 
13 | c1ccc2sc(Oc3ccc(CCN(CCCc4nn[nH]n4)C4CC4)cc3)nc2c1 [Example 389, {2-[4-(Benzothiazol-2-yloxy)-phenyl]-ethyl}-cyclopropyl-[3-(2H-tetrazol-5-yl)-propyl]-amine] |  | 2 |  | 
14 | CCN(CCCN1CCCC1=O)Cc1ccc(Oc2nc3ccccc3s2)cc1 [Example 437, 1-(3-{[4-(Benzothiazol-2-yloxy)-benzyl]-ethyl-amino}-propyl)-pyrrolidin-2-one] | 105 | 21 |  | 
15 | CCOC(=O)NC1CCN(Cc2ccc(Oc3nc4ccccc4s3)cc2)CC1 [Example 462, {1-[4-(Benzothiazol-2-yloxy)-benzyl]-piperidin-4-yl}-carbamic acid ethyl ester] | 144 | 27 |  | 
16 | NC(=S)NC1CCN(Cc2ccc(Oc3nc4ccccc4s3)cc2)CC1 [Example 479, {1-[4-(Benzothiazol-2-yloxy)-benzyl]-piperidin-4-yl}-thiourea] |  | 7 |  | 
17 | CCOC(=O)C1CCN(CCOc2ccc(Oc3nc4ccccc4[nH]3)cc2)CC1 [Example 485, 1-{2-[4-(1H-Benzoimidazol-2-yloxy)-phenoxy]-ethyl}-piperidine-4-carboxylic acid ethyl ester] |  | 39 |  | 

Second part, led by results:

Row | IC50 [2] [nM] | IC50 [3] [nM] | Structure (SMILES) | inhibition in vivo at 30 mg/kg [1] [%] | inhibition at 30 mg/kg [4] [%]
18 | 44 |  | c1ccc2oc(Oc3ccc(OCCN4CCCCC4)cc3)nc2c1 [Example 11, 2-[4-(2-Piperidin-1-yl-ethoxy)-phenoxy]-benzooxazole] | 95 | 
19 | 41 |  | OCC1CCN(CCOc2ccc(Oc3nc4ccccc4o3)cc2)CC1 [Example 13, (1-{2-[4-(Benzooxazol-2-yloxy)-phenoxy]ethyl}-piperidin-4-yl)-methanol] |  | 
20 | 72 | 1 | OC1CCN(CCc2ccc(Oc3nc4ccccc4o3)cc2)CC1 [Example 94, 1-{2-[4-(Benzooxazol-2-yloxy)-phenyl]-ethyl}-piperidin-4-ol] |  | 
21 | 290 | 111 | OCC1CCN(CCOc2ccc(Oc3nc4ccccc4[nH]3)cc2)CC1 [Example 133, (1-{2-[4-(1H-Benzoimidazol-2-yloxy)-phenoxy]-ethyl}-piperidin-4-yl)-methanol] |  | 
22 | 100 | 1 | OCC1CCCN(CCc2ccc(Oc3nc4ccccc4s3)cc2)C1 (centres unmarked) [Example 161, (1-{2-[4-(Benzothiazol-2-yloxy)-phenyl]-ethyl}-piperidin-3-yl)-methanol] |  | 
23 | 81 | 33 | O=C1C[C@@H](O)CN1C1CCN(CCOc2ccc(Oc3nc4ccccc4s3)cc2)CC1 [Example 261, (R) 1-(1-{2-[4-(Benzothiazol-2-yloxy)-phenoxy]-ethyl}-piperidin-4-yl)-4-hydroxy-pyrrolidin-2-one] |  | 
24 | 57 | 4 | OCCC1CCCCN1Cc1ccc(Oc2nc3ccccc3s2)cc1 (centres unmarked) [Example 288, 2-{1-[4-(Benzothiazol-2-yloxy)-benzyl]-piperidin-2-yl}-ethanol] |  | 
25 | 133 | 33 | OCCC1CCN(Cc2ccc(Oc3nc4ccccc4s3)cc2)CC1 [Example 296, 2-{1-[4-(Benzothiazol-2-yloxy)-benzyl]-piperidin-4-yl}-ethanol] |  | 
26 | 212 | 60 | OCC1CCCN(Cc2ccc(Oc3nc4ccccc4s3)cc2)C1 (centres unmarked) [Example 302, {1-[4-(Benzothiazol-2-yloxy)-benzyl]-piperidin-3-yl}-methanol] |  | 
27 | 453 | 100 | O=C1C[C@@H](O)CN1C1CCN(CCc2ccc(Oc3nc4ccccc4s3)cc2)CC1 [Example 334, (R)-1-(1-{2-[4-(Benzothiazol-2-yloxy)-phenyl]-ethyl}-piperidin-4-yl)-4-hydroxy-pyrrolidin-2-one] |  | 
28 |  | 4 | COC(=O)NC1CCN(Cc2ccc(Oc3nc4ccccc4s3)cc2)CC1 [Example 363, {1-[4-(Benzothiazol-2-yloxy)-benzyl]-piperidin-4-yl}-carbamic acid methyl ester] |  | 
29 | 17 | 6 | OCCN(CCc1ccc(Oc2nc3ccccc3s2)cc1)CC1CC1 [Example 380, 2-({2-[4-(Benzothiazol-2-yloxy)-phenyl]-ethyl}-cyclopropylmethyl-amino)-ethanol] |  | 
30 |  | 4 | O=C(O)CCCCCN(CCc1ccc(Oc2nc3ccccc3s2)cc1)C1CC1 [Example 419, 6-({2-[4-(Benzothiazol-2-yloxy)-phenyl]-ethyl}-cyclopropyl-amino)-hexanoic acid] |  | 
31 | 11 | 19 | CCN(CC)CCOc1ccc(Oc2nc3ccccc3o2)cc1 [Example 484, {2-[4-(Benzooxazol-2-yloxy)-phenoxy]-ethyl}-diethyl-amine] |  | 
